Assays:
human PD-L1 = human PD-L1 (Homo sapiens (Human), UniProt Q9NZQ7); assay: Biofilm interferometry (BLI, OctetRED) binding to human PD-L1/AVI; conditions: 1:1 binding model
Method: In the experiment, the instrument OctectRED of Fortebio Company based on biofilm interferometry (BLI) technology was used to capture human PD-L1/AVI with SA chips. The concentration of antigen PD-L1/AVI was diluted to 10 μg/mL with running buffer (PBS+0.02% Tween-20+2% DMSO), and the loading time was 300 s; similarly, the analyte was also diluted to the corresponding concentrations (20 nM, 10 nM, 5 nM, 2.5 nM, 1.25 nM, 0.625 nM, 0.3125 nM) with running buffer in gradient manner, and a buffer blank control group was set at the same time. The binding time of human PD-L1/AVI to the analyte was 180 s, and the dissociation time was 300 s; the chip was regenerated with 10 mM glycine HCl, pH 1.7 solution and repeated 5-second pulse for 3 times. The data were fitted to a 1:1 binding model to determine the equilibrium dissociation constant KD.

Raw cells = assay: Cytotoxicity, Cell Titer-Glo, Raw cells; format: cell-based; conditions: 24 hours incubation; read-out: Raw cells IC50 (cell death)
Method: (§1) The raji (ATCC), raw (ATCC) and PBMCs cells were suspended in buffer (RPMI 1640 complete medium containing 10% FBS, SIGMA), respectively, and the cell density was counted. The cells were transferred to wells of a 96-well plate, ensuring that the cell density of each well was 1×10^4 cells/well, and incubated for 24 hours at 37° C., 5% CO2 with compounds at different concentrations (100 μM, 50 μM, 25 μM, 12.5 μM, 6.25 μM and 3.125 μM) and buffer control solution (0.2% DMSO). To each well, 100 μL of Cell Titer-Glo Luminescent Solution (Promega) was added and shaken for 10 minutes at room temperature, and then GloMax® Navigator System was used to measure the system […], and the cell death rate was calculated. Cell death rate (%)=(1−RLUcompound/RLUcontrol)×100%, and IC50 was determined from the inhibition curve.

[1] = tested on: Human peripheral blood mononuclear cells (PBMCs); assay: Promotion of IFN-γ secretion in PBMCs treated with anti-CD3/anti-CD28 and PDL1/FC fusion protein (ELISA); format: cell-based; conditions: for IFN-γ / Increase rate of IFN-γ expression vs PDL1 treatment: hPD-L1 10.0 μg/mL, 72 h
Method: Human peripheral blood mononuclear cells (PBMCs) were isolated from 10-15 ml of whole blood of healthy volunteers using experimental human lymphocyte separation medium (TBD sciences). The cells were washed twice with normal saline and resuspended in buffer (RPMI 1640 complete medium containing 10% FBS, SIGMA) to count the cell density. The PBMCs were dispersed and placed in a 96-well plate, 1×10^5 cells and 50 μL of buffer per well. Anti-CD3 antibody (SIGMA) and anti-CD28 antibody (SIGMA) were mixed at a ratio of 1:1 to obtain an antibody mixture. The antibody mixture was added to the wells to ensure that the final concentration of antibody was 0.8 μg/mL. At the same time, PDL1/FC fusion protein (SINO BIOLOGICAL) was added to reach a final concentration of 10.0 μg/mL, and the compound to be tested was diluted with buffer and added to the wells to reach a final concentration of 0.1 μM or 1 μM. The mixed system was incubated at 37° C. and 5% CO2 for 72 h. The supernatant was collected, and the expression level of IFN-γ was measured by ELISA MAXTM Human IFN-γ Standard Kit (BioLegend), and the increase rate was calculated. Increase rate (%)=(expression amount of compound treatment−expression amount of PDL1 treatment)/expression amount of PDL1 treatment×100%

PD-1/PD-L1 interaction = PD-1/PD-L1 interaction (Homo sapiens (Human), UniProt Q9NZQ7); assay: PD-1/PD-L1 Binding Assay kit (Cisbio), HTRF; conditions: 8-10 concentrations, read-out: IC50 of inhibition of PD-1/PD-L1 interaction
Sequence of PD-1/PD-L1 interaction (Q9NZQ7 19-238): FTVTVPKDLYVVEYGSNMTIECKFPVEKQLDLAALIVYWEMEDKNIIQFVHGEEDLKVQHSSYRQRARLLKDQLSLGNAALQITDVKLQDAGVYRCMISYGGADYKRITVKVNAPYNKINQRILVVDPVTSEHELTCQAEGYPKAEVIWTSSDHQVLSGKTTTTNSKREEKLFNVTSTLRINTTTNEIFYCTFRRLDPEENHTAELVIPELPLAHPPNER

[2] = tested on: colon cancer cell line MC38 (mouse PD-L1 knockout, human PD-L1 knockin); assay: Antitumor efficacy in vivo in PD-1 humanized mice inoculated with PD-L1 humanized MC38 cells; conditions: 15 mg/kg intraperitoneal injection once per day for three weeks, compared with the control group
Excerpt: Based on the mechanism that PD-1/PD-L1 inhibitors activated the immune system to achieve anti-tumor effects by interfering with the interaction of PD-1/PD-L1, the animal models used in vivo efficacy experiments must be animals with healthy immune systems; in addition, the species differences of PD-1/PD-L1 between animals and humans are considered. Therefore, the in vivo antitumor pharmacodynamics evaluation model of the present invention adopted PD-1 humanized mice, and the inoculated tumors were PD-L1 humanized tumor cells. This evaluation model could more accurately reflect the in vivo efficacy of the compound.
24 PD-1 humanized mice (full name of strain: C57BL/6J-Pdcd1^em1(hPDCD1)/Smoc) about 6 weeks old were purchased from Shanghai Southern Model Animal Center, and placed in SPF grade animal breeding room for observation for 1 to 2 weeks. After the animals were adapted to the raising environment, the genetically engineered colon cancer cell line MC38 (mouse PD-L1 knockout, human PD-L1 knockin) was subcutaneously inoculated to the mice near the hind leg groin, and the inoculated cell volume was 1×10^6 cells per mouse. […] During the experiment, the tumor size and mouse body weight were measured and recorded, and the mice were sacrificed at the end of the experiment. […]

PBMCs cells = assay: Cytotoxicity, Cell Titer-Glo, PBMCs cells; format: cell-based; conditions: Homo sapiens, PBMC; 24 hours incubation; read-out: PBMCs cells IC50 (cell death)
Method: as §1

Raji cells = assay: Cytotoxicity, Cell Titer-Glo, Raji cells; format: cell-based; conditions: Homo sapiens, 24 hours incubation, read-out: Raji cells IC50 (cell death)
Method: as §1

Sequence of human PD-L1 (Q9NZQ7 19-290): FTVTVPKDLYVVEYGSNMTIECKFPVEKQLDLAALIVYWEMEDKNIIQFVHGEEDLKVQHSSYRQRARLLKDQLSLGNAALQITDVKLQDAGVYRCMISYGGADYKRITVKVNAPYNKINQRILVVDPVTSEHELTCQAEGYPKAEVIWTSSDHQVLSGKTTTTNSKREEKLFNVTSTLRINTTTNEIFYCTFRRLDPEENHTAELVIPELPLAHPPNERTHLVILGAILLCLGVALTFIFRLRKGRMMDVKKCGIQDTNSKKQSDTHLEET

SMILES: Cc1cc(CN[C@H](CO)C(=O)O)c(OCc2cncc(C#N)c2)cc1NCc1cccc(-c2ccccc2)c1C [Compound 5]
- Kd (human PD-L1): 0.0162 nM
- kon (human PD-L1): 2.17e+06 M⁻¹ s⁻¹
- koff (human PD-L1; read-out: Kdis): 3.53e-05 s⁻¹
- IC50 (Raw cells): > 100000 nM
- IFN-γ ([1]; compound 0.1 μM): 38300 pg/mL
- Increase rate of IFN-γ expression vs PDL1 treatment ([1]; compound 0.1 μM): 79.8%
- IFN-γ ([1]; compound 1.0 μM): 42400 pg/mL
- Increase rate of IFN-γ expression vs PDL1 treatment ([1]; compound 1.0 μM): 99.1%
- effect on promoting IFN-γ secretion at the cellular level ([1]; in words, better than that of BMS202): significant effect on promoting IFN-γ secretion
- IC50 (PD-1/PD-L1 interaction): 12 nM
- growth of tumors [2]: significantly inhibit the growth of tumors
- IC50 (PBMCs cells): > 100000 nM
- IC50 (Raji cells): > 100000 nM

From patent US20230303494A1, “BENZYLAMINE DERIVATIVE, PREPARATION METHOD THEREFOR AND USE THEREOF” (ACADEMY OF MILITARY MEDICAL SCIENCES, priority 2020, published 2023)
